Assay results taken from patent US8486977B2, “1,2,3-triazole derivatives for use as stearoyl-CoA desaturase inhibitors” (GlaxoSmithKline LLC, priority 2007, dated 2013).
pIC50: −log10 of the molar value.

How the values were obtained:
[1] = target: T1, SCD (Rattus norvegicus, UniProt P07308); assay: in vitro assay for SCD activity based on production of [3H]H2O; format: biochemical; conditions: SCD-containing rat microsomes (2 μg protein), [9,10-3H] stearoyl Coenzyme A 1 μM, 6 min incubation
T1 construct: SCD-containing rat microsomes (2 μg protein); from tissue
T1 sequence (P07308 1-358): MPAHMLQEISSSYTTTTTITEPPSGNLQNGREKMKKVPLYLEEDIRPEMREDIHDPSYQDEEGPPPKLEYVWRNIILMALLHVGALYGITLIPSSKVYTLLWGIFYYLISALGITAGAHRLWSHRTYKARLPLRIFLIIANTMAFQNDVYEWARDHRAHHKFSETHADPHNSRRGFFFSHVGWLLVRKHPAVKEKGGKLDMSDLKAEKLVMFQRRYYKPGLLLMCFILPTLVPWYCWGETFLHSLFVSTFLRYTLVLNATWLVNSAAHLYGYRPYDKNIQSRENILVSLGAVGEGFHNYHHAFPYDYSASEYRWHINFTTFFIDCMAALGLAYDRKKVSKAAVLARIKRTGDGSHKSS
Procedure: The compounds of the present invention may be analysed in vitro for SCD activity using an assay based on the production of [^3H]H2O, which is released during the enzyme-catalyzed generation of the monounsaturated fatty acyl CoA product. The assay is performed in a 96-well filtration plates. The titrated substrate used in the assay is the [9,10-^3H] stearoyl Coenzyme A. After incubation for 6 minutes of SCD-containing rat microsomes (2 μg protein) and substrate (1 μM), the labelled fatty acid acyl-CoA species and microsomes are absorbed with charcoal and separated from [^3H]H2O by centrifugation. The formation of [^3H]H2O is used as a measure of SCD activity. Compounds at concentrations starting at 10 μM to 0.1 nM or vehicle (DMSO) are preincubated for 5 minutes with the microsomes before addition of the substrate. The concentration-responses are fitted with sigmoidal curves to obtain IC50 values.

SMILES | melting point | pIC50 [1]
COc1ccc(NC(=O)c2nnn(Cc3ccc(C(C)C)cc3)c2C)cc1OC [N-[3,4-Bis(methyloxy)phenyl]-5-methyl-1-{[4-(1-methylethyl)phenyl]methyl}-1H-1,2,3-triazole-4-carboxamide] |  | < 5.00
Cc1c(C(=O)Nc2cc(C(=O)O)cc(C(=O)O)c2)nnn1Cc1cccc(Cl)c1 [5-[({1-[(3-Chlorophenyl)methyl]-5-methyl-1H-1,2,3-triazol-4-yl}carbonyl)amino]-1,3-benzenedicarboxylic acid] |  | < 5.00
COC(=O)c1cc(NC(=O)c2nnn(Cc3ccc(Cl)c(Cl)c3)c2C)ccc1O [Example 29, Methyl 5-[({1-[(3,4-dichlorophenyl)methyl]-5-methyl-1H-1,2,3-triazol-4-yl}carbonyl)amino]-2-hydroxybenzoate] | 180 °C | 
Cc1c(C(=O)Nc2ccc(Cl)c(CO)c2)nnn1Cc1ccc(Cl)c(Cl)c1 [Example 45, N-[4-Chloro-3-(hydroxymethyl)phenyl]-1-[(3,4-dichlorophenyl)methyl]-5-methyl-1H-1,2,3-triazole-4-carboxamide] | 190.3 °C | 
Cc1c(C(=O)Nc2ccc(OCCC(C)C)cc2)nnn1Cc1ccc(F)cc1 | 114 °C | 
COc1ccc(CO)cc1NC(=O)c1nnn(Cc2ccc(Cl)c(Cl)c2)c1C [Example 51, 1-[(3,4-Dichlorophenyl)methyl]-N-[5-(hydroxymethyl)-2-(methyloxy)phenyl]-5-methyl-1H-1,2,3-triazole-4-carboxamide] | 198 °C | 
Cc1c(CO)cccc1NC(=O)c1nnn(Cc2cc(Cl)cc(Cl)c2)c1C [Example 42, 1-[(3,5-Dichlorophenyl)methyl]-N-[3-(hydroxymethyl)-2-methylphenyl]-5-methyl-1H-1,2,3-triazole-4-carboxamide] | 185 °C | 
CNC(=O)c1cccc(NC(=O)c2nnn(Cc3ccc(Cl)c(Cl)c3)c2C)c1 [Example 18, 1-[(3,4-Dichlorophenyl)methyl]-5-methyl-N-{3-[(methylamino)carbonyl]phenyl}-1H-1,2,3-triazole-4-carboxamide] | 203.9 °C | 
Cc1ccc(Cn2nnc(C(=O)Nc3ccc(OCCC(C)C)cc3)c2C)cc1 | 105 °C | 
COC(=O)c1cc(NC(=O)c2nnn(Cc3cc(Cl)cc(Cl)c3)c2C)ccc1F [Example 47, Methyl 5-[({1-[(3,5-dichlorophenyl)methyl]-5-methyl-1H-1,2,3-triazol-4-yl}carbonyl)amino]-2-fluorobenzoate] | 191 °C | 
COC(=O)c1ccc(OC)c(NC(=O)c2nnn(Cc3ccc(Cl)c(Cl)c3)c2C)c1 [Example 25, Methyl 3-[({1-[(3,4-dichlorophenyl)methyl]-5-methyl-1H-1,2,3-triazol-4-yl}carbonyl)amino]-4-(methyloxy)benzoate] | 203 °C | 
COc1ccc(NC(=O)c2nnn(Cc3ccc(Br)cc3)c2C)cc1OC | 173 °C | 
COc1ccc(NC(=O)c2nnn(Cc3ccc(F)cc3)c2C)cc1OC | 119.7 °C | 
COc1ccc(C(N)=O)cc1NC(=O)c1nnn(Cc2ccc(Cl)c(Cl)c2)c1C [Example 33, N-[5-(Aminocarbonyl)-2-(methyloxy)phenyl]-1-[(3,4-dichlorophenyl)methyl]-5-methyl-1H-1,2,3-triazole-4-carboxamide] | 218.2 °C | 
Cc1c(C(=O)Nc2ccc(OCCC(C)C)cc2)nnn1Cc1ccc(-c2ccccc2Cl)cc1 [Example 9, 1-[(2’-Chloro-4-biphenylyl)methyl]-5-methyl-N-{4-[(3-methylbutyl)oxy]phenyl}-1H-1,2,3-triazole-4-carboxamide] | 125 °C (dec.) | 
COC(=O)c1ccc(F)c(NC(=O)c2nnn(Cc3ccc(Cl)c(Cl)c3)c2C)c1 [Example 36, Methyl 3-[({1-[(3,4-dichlorophenyl)methyl]-5-methyl-1H-1,2,3-triazol-4-yl}carbonyl)amino]-4-fluorobenzoate] | 195.7 °C | 
Cc1c(C(=O)Nc2cccc(C(C)O)c2)nnn1Cc1ccc(Cl)c(Cl)c1 (stereo not shown) [Example 44, 1-[(3,4-Dichlorophenyl)methyl]-N-[3-(1-hydroxyethyl)phenyl]-5-methyl-1H-1,2,3-triazole-4-carboxamide] | 145 °C | 
Cc1c(C(=O)Nc2ccc(OCCC(C)C)cc2)nnn1Cc1ccc(Br)cc1 | 137 °C | 
COc1cc(CO)ccc1NC(=O)c1nnn(Cc2ccc(Cl)c(Cl)c2)c1C [Example 49, 1-[(3,4-Dichlorophenyl)methyl]-N-[4-(hydroxymethyl)-2-(methyloxy)phenyl]-5-methyl-1H-1,2,3-triazole-4-carboxamide] | 136 °C | 
Cc1c(C(=O)Nc2cccc(CO)c2)nnn1Cc1cc(Cl)cc(Cl)c1 [Example 40, 1-[(3,5-Dichlorophenyl)methyl]-N-[3-(hydroxymethyl)phenyl]-5-methyl-1H-1,2,3-triazole-4-carboxamide] | 159 °C | 
COC(=O)Cc1ccc(OC)c(NC(=O)c2nnn(Cc3ccc(Cl)c(Cl)c3)c2C)c1 [Example 35, Methyl [3-[({1-[(3,4-dichlorophenyl)methyl]-5-methyl-1H-1,2,3-triazol-4-yl}carbonyl)amino]-4-(methyloxy)phenyl]acetate] | 133 °C | 

More lines, main results first:

melting point | SMILES | pIC50 [1]
151.9 °C | Cc1c(C(=O)Nc2cccc(CO)c2)nnn1Cc1cccc(Cl)c1 [Example 86, 1-[(3-Chlorophenyl)methyl]-N-[3-(hydroxymethyl)phenyl]-5-methyl-1H-1,2,3-triazole-4-carboxamide] | 
171.4 °C | Cc1c(C(=O)Nc2ccc(CO)c(CO)c2)nnn1Cc1ccccc1 [Example 80, N-[3,4-bis(Hydroxymethyl)phenyl]-5-methyl-1-(phenylmethyl)-1H-1,2,3-triazole-4-carboxamide] | 
142 °C | Cc1c(C(=O)Nc2cccc(CCO)c2)nnn1Cc1ccc(Cl)c(Cl)c1 [Example 62, 1-[(3,4-Dichlorophenyl)methyl]-N-[3-(2-hydroxyethyl)phenyl]-5-methyl-1H-1,2,3-triazole-4-carboxamide] | 
190.7 °C | Cc1c(C(=O)Nc2cccc(C(=O)NCCO)c2)nnn1Cc1ccc(Cl)c(Cl)c1 [Example 68, 1-[(3,4-Dichlorophenyl)methyl]-N-(3-{[(2-hydroxyethyl)amino]carbonyl}phenyl)-5-methyl-1H-1,2,3-triazole-4-carboxamide] | 
140 °C | Cc1c(C(=O)Nc2ccc(OCCO)cc2)nnn1Cc1ccc(Cl)c(Cl)c1 [Example 74, 1-[(3,4-Dichlorophenyl)methyl]-N-{4-[(2-hydroxyethyl)oxy]phenyl}-5-methyl-1H-1,2,3-triazole-4-carboxamide] | 
136.2 °C | Cc1c(C(=O)Nc2ccc(CO)cc2)nnn1Cc1cccc(Cl)c1 [Example 88, 1-[(3-Chlorophenyl)methyl]-N-[4-(hydroxymethyl)phenyl]-5-methyl-1H-1,2,3-triazole-4-carboxamide] | 
210.5 °C | Cc1c(C(=O)Nc2cc(CO)ccc2F)nnn1Cc1ccc(Cl)c(Cl)c1 [Example 55, 1-[(3,4-Dichlorophenyl)methyl]-N-[2-fluoro-5-(hydroxymethyl)phenyl]-5-methyl-1H-1,2,3-triazole-4-carboxamide] | 
222.2 °C | CNC(=O)c1ccc(OC)c(NC(=O)c2nnn(Cc3ccc(Cl)c(Cl)c3)c2C)c1 [Example 69, 1-[(3,4-Dichlorophenyl)methyl]-5-methyl-N-[5-[(methylamino)carbonyl]-2-(methyloxy)phenyl]-1H-1,2,3-triazole-4-carboxamide] | 
> 70 °C | CC(=O)OCc1cccc(NC(=O)c2nnn(Cc3ccc(Cl)c(Cl)c3)c2C)c1 [Example 70, {3-[({1-[(3,4-Dichlorophenyl)methyl]-5-methyl-1H-1,2,3-triazol-4-yl}carbonyl)amino]phenyl}methyl acetate] | 
214 °C | COc1ccc(CO)cc1NC(=O)c1nnn(Cc2cc(Cl)cc(Cl)c2)c1C [Example 57, 1-[(3,5-Dichlorophenyl)methyl]-N-[5-(hydroxymethyl)-2-(methyloxy)phenyl]-5-methyl-1H-1,2,3-triazole-4-carboxamide] | 
192.2 °C | CCNC(=O)c1cccc(NC(=O)c2nnn(Cc3ccc(Cl)c(Cl)c3)c2C)c1 [Example 67, 1-[(3,4-Dichlorophenyl)methyl]-N-{3-[(ethylamino)carbonyl]phenyl}-5-methyl-1H-1,2,3-triazole-4-carboxamide] | 
223 to 225 °C | CNC(=O)c1cc(CO)cc(NC(=O)c2nnn(Cc3ccc(Cl)c(Cl)c3)c2C)c1 [Example 92, 1-[(3,4-Dichlorophenyl)methyl]-N-{3-(hydroxymethyl)-5-[(methylamino)carbonyl]phenyl}-5-methyl-1H-1,2,3-triazole-4-carboxamide] | 
175.5 °C | Cc1c(C(=O)Nc2ccc(CO)c(CO)c2)nnn1Cc1ccc(F)cc1 [Example 83, N-[3,4-bis(Hydroxymethyl)phenyl]-1-[(4-fluorophenyl)methyl]-5-methyl-1H-1,2,3-triazole-4-carboxamide] | 
